US20220298138A1, “ENZYME INHIBITORS” (KALVISTA PHARMACEUTICALS LIMITED, priority 2019, published 2022)
Read-outs that look alike come from different tables or passages of the source.

Target: T1, Human Factor XIIa (Homo sapiens, UniProt P00748)
T1 construct: purchased Enzyme Research Laboratories
T1 sequence (P00748 373-615 limits assumed): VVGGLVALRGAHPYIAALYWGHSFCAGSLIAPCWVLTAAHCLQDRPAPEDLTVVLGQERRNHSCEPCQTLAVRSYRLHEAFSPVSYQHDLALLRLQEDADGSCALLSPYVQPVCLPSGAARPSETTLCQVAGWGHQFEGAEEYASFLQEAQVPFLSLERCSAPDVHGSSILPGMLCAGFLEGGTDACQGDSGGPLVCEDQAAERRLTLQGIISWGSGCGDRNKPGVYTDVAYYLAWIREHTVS
Assay: Factor XIIa inhibitory activity in vitro (fluorogenic substrate H-DPro-Phe-Arg-AFC)
Format: biochemical
Conditions: 25° C., read-out: Human FXIIa IC50
Procedure: Determination of the % Inhibition for FXIIa
Human Factor XIIa (Enzyme Research Laboratories) was incubated at 25° C. with the fluorogenic substrate H-DPro-Phe-Arg-AFC and various concentrations of the test compound. Residual enzyme activity (initial rate of reaction) was determined by measuring the change in […] at 410 nm and the IC50 value for the test compound was determined.

Nc1nccc2cc(CNC(=O)[C@H](Cc3ccc(F)c(F)c3)NC(=O)c3cccc(N4CCCC4=O)c3)ccc12 [Example 0.81]
IC50 (class symbols): 3 to 10 µM

Nc1nccc2cc(CNC(=O)[C@H](Cc3ccc(F)c(F)c3)NC(=O)c3cccs3)ccc12 [Example 0.82]
IC50 (class symbols): 10 to 40 µM

Cc1ccnn1-c1ccc(C(=O)N[C@@H](Cc2ccc(F)c(F)c2)C(=O)NCc2ccc3c(N)nccc3c2)cc1 [Example 0.83]
IC50 (numeric bound instead of class symbol): > 12.7 µM

COc1cnccc1C(=O)N[C@@H](Cc1ccc(F)c(F)c1)C(=O)NCc1ccc2c(N)nccc2c1 [Example 0.84]
IC50 (class symbols): 10 to 40 µM

Nc1nccc2cc(CNC(=O)[C@H](Cc3ccc(F)c(F)c3)NC(=O)c3cc4ccccc4[nH]3)ccc12 [Example 0.85]
IC50 (class symbols): 10 to 40 µM

CN(C)C(C)(C)C(=O)N[C@@H](Cc1ccc(F)c(F)c1)C(=O)NCc1ccc2c(N)nccc2c1 [Example 0.86]
IC50 (class symbols): 1 to 3 µM

CC(C)c1cc(C(=O)N[C@@H](Cc2ccc(F)c(F)c2)C(=O)NCc2ccc3c(N)nccc3c2)ncn1 [Example 0.87]
IC50 (class symbols): 0.28 to 1 µM

Cn1nc(C(C)(C)C)cc1C(=O)N[C@@H](Cc1ccc(F)c(F)c1)C(=O)NCc1ccc2c(N)nccc2c1 [Example 0.88]
IC50 (class symbols): 10 to 40 µM

CC(C)c1ncncc1C(=O)N[C@@H](Cc1ccc(F)c(F)c1)C(=O)NCc1ccc2c(N)nccc2c1 [Example 0.89]
IC50 (class symbols): 10 to 40 µM

CC(C)c1cc(C(=O)N[C@@H](Cc2ccc(F)c(F)c2)C(=O)NCc2ccc3c(N)nccc3c2)n(C)n1 [Example 0.90]
IC50 (class symbols): 10 to 40 µM

CC(C)c1nc(C(=O)N[C@@H](Cc2ccc(F)c(F)c2)C(=O)NCc2ccc3c(N)nccc3c2)cs1 [Example 0.91]
IC50 (class symbols): 10 to 40 µM

CC(C)c1ncc(C(=O)N[C@@H](Cc2ccc(F)c(F)c2)C(=O)NCc2ccc3c(N)nccc3c2)cn1 [Example 0.92]
IC50 (class symbols): 3 to 10 µM

Nc1nccc2cc(CNC(=O)[C@H](Cc3ccc(F)c(F)c3)NC(=O)c3ccn4ncnc4n3)ccc12 [Example 0.93]
IC50 (class symbols): 1 to 3 µM

CC1CCCC(C)N1CC(=O)N[C@@H](Cc1cccc2ccccc12)C(=O)NCc1ccc2c(N)nccc2c1 (stereo partly shown) [Example 3.02]
IC50 (class symbols): 0.1 to 0.279 µM

CN(C)CC(=O)N[C@@H](Cc1ccc(F)c(F)c1)C(=O)NCc1ccc2c(N)nccc2c1 [Example 3.03]
IC50 (class symbols): 1 to 3 µM

CC1CCCC(C)N1CC(=O)N[C@@H](Cc1cccc(F)c1)C(=O)NCc1ccc2c(N)nccc2c1 (stereo partly shown) [Example 3.04]
IC50 (class symbols): 0.1 to 0.279 µM

CC1CCCC(C)N1CC(=O)N[C@@H](Cc1ccccc1Cl)C(=O)NCc1ccc2c(N)nccc2c1 (stereo partly shown) [Example 3.05]
IC50 (class symbols): 1 to 3 µM

Nc1nccc2cc(CNC(=O)[C@H](Cc3ccc(F)c(F)c3)NC(=O)CN3CCCCC3)ccc12 [Example 3.06]
IC50 (class symbols): 1 to 3 µM

Nc1nccc2cc(CNC(=O)[C@H](Cc3ccc(F)c(F)c3)NC(=O)CN3CCOCC3)ccc12 [Example 3.07]
IC50 (class symbols): 10 to 40 µM

CC(C)N(C)CC(=O)N[C@@H](Cc1ccc(F)c(F)c1)C(=O)NCc1ccc2c(N)nccc2c1 [Example 3.08]
IC50 (class symbols): 0.28 to 1 µM

CC(C)N(CC(=O)N[C@@H](Cc1ccc(F)c(F)c1)C(=O)NCc1ccc2c(N)nccc2c1)C(C)C [Example 3.09]
IC50 (class symbols): 0.28 to 1 µM

C[C@@H]1CCC[C@H](C)N1CC(=O)N[C@@H](Cc1csc2ccccc12)C(=O)NCc1ccc2c(N)nccc2c1 [Example 3.10]
IC50 (class symbols): 0.03 to 0.1 µM

C[C@@H]1CCC[C@H](C)N1CC(=O)N[C@@H](Cc1ccccc1)C(=O)NCc1ccc2c(N)nccc2c1 [Example 3.11]
IC50 (class symbols): 0.1 to 0.279 µM

C[C@@H]1CCC[C@H](C)N1CC(=O)N[C@@H](Cc1ccc(Cl)cc1)C(=O)NCc1ccc2c(N)nccc2c1 [Example 3.12]
IC50 (class symbols): 3 to 10 µM

C[C@@H]1CCC[C@H](C)N1CC(=O)N[C@@H](Cc1cccc(Cl)c1)C(=O)NCc1ccc2c(N)nccc2c1 [Example 3.13]
IC50 (class symbols): 0.1 to 0.279 µM

C[C@@H]1CCC[C@H](C)N1CC(=O)N[C@@H](Cc1ccc(F)cc1)C(=O)NCc1ccc2c(N)nccc2c1 [Example 3.14]
IC50 (class symbols): 0.1 to 0.279 µM

C[C@@H]1CCC[C@H](C)N1CC(=O)N[C@@H](CCc1ccccc1)C(=O)NCc1ccc2c(N)nccc2c1 [Example 3.15]
IC50 (class symbols): 1 to 3 µM

C[C@@H]1CCC[C@H](C)N1CC(=O)N[C@@H](CC1CCCCC1)C(=O)NCc1ccc2c(N)nccc2c1 [Example 3.16]
IC50 (class symbols): 3 to 10 µM

C[C@@H]1CCC[C@H](C)N1CC(=O)N[C@H](Cc1ccc(F)c(F)c1)C(=O)NCc1ccc2c(N)nccc2c1 [Example 3.17]
IC50 (class symbols): 1 to 3 µM

CC1(C)CCCN1CC(=O)N[C@@H](Cc1ccc(F)c(F)c1)C(=O)NCc1ccc2c(N)nccc2c1 [Example 3.18]
IC50 (class symbols): 0.28 to 1 µM

C[C@H]1CC[C@H](C)N1CC(=O)N[C@@H](Cc1ccc(F)c(F)c1)C(=O)NCc1ccc2c(N)nccc2c1 [Example 3.19]
IC50 (class symbols): 0.28 to 1 µM

C[C@@H]1CC[C@H](C)N1CC(=O)N[C@@H](Cc1ccc(F)c(F)c1)C(=O)NCc1ccc2c(N)nccc2c1 [Example 3.20]
IC50 (class symbols): 0.28 to 1 µM

C[C@@H]1CCC[C@H](C)N1CC(=O)N[C@@H](Cc1c[nH]c2ccccc12)C(=O)NCc1ccc2c(N)nccc2c1 [Example 3.21]
IC50 (class symbols): 0.1 to 0.279 µM

CC[C@H](NC(=O)CN1[C@H](C)CCC[C@@H]1C)C(=O)NCc1ccc2c(N)nccc2c1 [Example 3.22]
IC50 (class symbols): 3 to 10 µM

Nc1nccc2cc(CNC(=O)[C@H](Cc3ccc(F)c(F)c3)NC(=O)Cc3cccnc3)ccc12 [Example 3.23]
IC50 (class symbols): 10 to 40 µM

CS(=O)(=O)c1cccc(CC(=O)N[C@@H](Cc2ccc(F)c(F)c2)C(=O)NCc2ccc3c(N)nccc3c2)c1 [Example 3.24]
IC50 (class symbols): 3 to 10 µM

N#Cc1cccc(CC(=O)N[C@@H](Cc2ccc(F)c(F)c2)C(=O)NCc2ccc3c(N)nccc3c2)c1 [Example 3.25]
IC50 (class symbols): 10 to 40 µM

Nc1nccc2cc(CNC(=O)[C@H](Cc3ccc(F)c(F)c3)NC(=O)Cc3ccsc3)ccc12 [Example 3.26]
IC50 (class symbols): 10 to 40 µM

Cc1ccc(CN(C)CC(=O)N[C@@H](Cc2ccc(F)c(F)c2)C(=O)NCc2ccc3c(N)nccc3c2)cc1 [Example 3.27]
IC50 (class symbols): 10 to 40 µM

CC(C)(O)CC(=O)N[C@@H](Cc1ccc(F)c(F)c1)C(=O)NCc1ccc2c(N)nccc2c1 [Example 3.28]
IC50 (class symbols): 10 to 40 µM

Nc1nccc2cc(CNC(=O)[C@H](Cc3ccc(F)c(F)c3)NC(=O)CCn3cc(C(F)(F)F)ccc3=O)ccc12 [Example 3.29]
IC50 (class symbols): 10 to 40 µM

CCCCOCC(=O)N[C@@H](Cc1ccc(F)c(F)c1)C(=O)NCc1ccc2c(N)nccc2c1 [Example 3.30]
IC50 (class symbols): 10 to 40 µM

Cc1nccn1CCC(=O)N[C@@H](Cc1ccc(F)c(F)c1)C(=O)NCc1ccc2c(N)nccc2c1 [Example 3.31]
IC50 (class symbols): 3 to 10 µM

Nc1nccc2cc(CNC(=O)[C@H](Cc3ccc(F)c(F)c3)NC(=O)Cc3nc(-c4cccnc4)n[nH]3)ccc12 [Example 3.32]
IC50 (class symbols): 10 to 40 µM

Nc1nccc2cc(CNC(=O)[C@H](Cc3ccc(F)c(F)c3)NC(=O)CN3CCOc4ccccc4C3)ccc12 [Example 3.33]
IC50 (class symbols): 10 to 40 µM

Nc1nccc2cc(CNC(=O)[C@H](Cc3ccc(F)c(F)c3)NC(=O)Cc3ccccn3)ccc12 [Example 3.34]
IC50 (class symbols): 10 to 40 µM

Nc1nccc2cc(CNC(=O)[C@H](Cc3ccc(F)c(F)c3)NC(=O)C[C@@H]3CCCO3)ccc12 [Example 3.35]
IC50 (class symbols): 10 to 40 µM

Nc1nccc2cc(CNC(=O)[C@H](Cc3ccc(F)c(F)c3)NC(=O)C[C@H]3CCCO3)ccc12 [Example 3.36]
IC50 (class symbols): 10 to 40 µM

Nc1nccc2cc(CNC(=O)[C@H](Cc3ccc(F)c(F)c3)NC(=O)CN3CCCC3=O)ccc12 [Example 3.37]
IC50 (class symbols): 10 to 40 µM

Nc1nccc2cc(CNC(=O)[C@H](Cc3ccc(F)c(F)c3)NC(=O)CN3CCCCCC3)ccc12 [Example 3.38]
IC50 (class symbols): 1 to 3 µM

Nc1nccc2cc(CNC(=O)[C@H](Cc3ccc(F)c(F)c3)NC(=O)CN3CCCCC3=O)ccc12 [Example 3.39]
IC50 (class symbols): 10 to 40 µM

CN1CCN(CC(=O)N[C@@H](Cc2ccc(F)c(F)c2)C(=O)NCc2ccc3c(N)nccc3c2)CC1 [Example 3.40]
IC50 (class symbols): 10 to 40 µM

Nc1nccc2cc(CNC(=O)[C@H](Cc3ccc(F)c(F)c3)NC(=O)CN3CCCC3)ccc12 [Example 3.41]
IC50 (class symbols): 1 to 3 µM

CC1CCCC(C)N1CC(=O)N[C@@H](Cc1ccc(F)c(F)c1)C(=O)NCc1cnc2[nH]cc(Cl)c2c1 (stereo partly shown) [Example 3.101]
IC50 (class symbols): 1 to 3 µM

CC1CCCC(C)N1CC(=O)N[C@@H](Cc1ccc(F)c(F)c1)C(=O)NCc1ccnc(N)c1 (stereo partly shown) [Example 3.102]
IC50 (class symbols): 10 to 40 µM

C[C@@H]1CCC[C@H](C)N1CC(=O)N[C@@H](Cc1ccc(F)c(F)c1)C(=O)NCc1ccc2[nH]cnc2c1 [Example 3.103]
IC50 (class symbols): 10 to 40 µM

C[C@@H]1CCC[C@H](C)N1CC(=O)N[C@@H](Cc1ccc(F)c(F)c1)C(=O)NCc1ccc2c(N)n[nH]c2c1 [Example 3.104, (2S)—N-[(3-amino-1H-indazol-6-yl)methyl]-3-(3,4-difluorophenyl)-2-{2-[(2R,6S)-2,6-dimethylpiperidin-1-yl]acetamido}propanamide]
IC50 (class symbols): 10 to 40 µM

C[C@@H]1CCC[C@H](C)N1CC(=O)N[C@@H](Cc1ccc(F)c(F)c1)C(=O)NCc1ccc2c(N)noc2c1 [Example 3.105, (2S)—N-[(3-amino-1,2-benzoxazol-6-yl)methyl]-3-(3,4-difluorophenyl)-2-{2-[(2R,6S)-2,6-dimethylpiperidin-1-yl]acetamido}propanamide]
IC50 (class symbols): 10 to 40 µM

CCC(C)[C@H](C(=O)N[C@@H](Cc1ccc(F)c(F)c1)C(=O)NCc1ccc2c(N)nccc2c1)N(C)C (stereo partly shown) [Example 5.101]
IC50 (class symbols): 3 to 10 µM

CC(C)N(C)[C@H](C)C(=O)N[C@@H](Cc1ccc(F)c(F)c1)C(=O)NCc1ccc2c(N)nccc2c1 [Example 5.102]
IC50 (class symbols): 0.28 to 1 µM

CC(C(=O)N[C@@H](Cc1ccc(F)c(F)c1)C(=O)NCc1ccc2c(N)nccc2c1)N1CCCC1 (stereo partly shown) [Example 5.103]
IC50 (class symbols): 1 to 3 µM
